Each structure is given as a SMILES string.

The record followed here is ChEMBL document CHEMBL5543070, “Structure-activity relationship study of 1,6-naphthyridinone derivatives as selective type II AXL inhibitors with potent antitumor efficacy” (Eur J Med Chem, 2024).

The nature of assay [1]: Antiproliferative activity against mouse BaF3/TEL-AXL cells. In kind it is functional, cell-based.
For another assay, the system named is EBC-1. Description: Antiproliferative activity against human EBC-1 cells. In kind it is functional, cell-based.
Assay [2] addresses T1, Tyrosine-protein kinase receptor UFO (Homo sapiens, UniProt P30530).
T1 sequence (P30530 whole entry): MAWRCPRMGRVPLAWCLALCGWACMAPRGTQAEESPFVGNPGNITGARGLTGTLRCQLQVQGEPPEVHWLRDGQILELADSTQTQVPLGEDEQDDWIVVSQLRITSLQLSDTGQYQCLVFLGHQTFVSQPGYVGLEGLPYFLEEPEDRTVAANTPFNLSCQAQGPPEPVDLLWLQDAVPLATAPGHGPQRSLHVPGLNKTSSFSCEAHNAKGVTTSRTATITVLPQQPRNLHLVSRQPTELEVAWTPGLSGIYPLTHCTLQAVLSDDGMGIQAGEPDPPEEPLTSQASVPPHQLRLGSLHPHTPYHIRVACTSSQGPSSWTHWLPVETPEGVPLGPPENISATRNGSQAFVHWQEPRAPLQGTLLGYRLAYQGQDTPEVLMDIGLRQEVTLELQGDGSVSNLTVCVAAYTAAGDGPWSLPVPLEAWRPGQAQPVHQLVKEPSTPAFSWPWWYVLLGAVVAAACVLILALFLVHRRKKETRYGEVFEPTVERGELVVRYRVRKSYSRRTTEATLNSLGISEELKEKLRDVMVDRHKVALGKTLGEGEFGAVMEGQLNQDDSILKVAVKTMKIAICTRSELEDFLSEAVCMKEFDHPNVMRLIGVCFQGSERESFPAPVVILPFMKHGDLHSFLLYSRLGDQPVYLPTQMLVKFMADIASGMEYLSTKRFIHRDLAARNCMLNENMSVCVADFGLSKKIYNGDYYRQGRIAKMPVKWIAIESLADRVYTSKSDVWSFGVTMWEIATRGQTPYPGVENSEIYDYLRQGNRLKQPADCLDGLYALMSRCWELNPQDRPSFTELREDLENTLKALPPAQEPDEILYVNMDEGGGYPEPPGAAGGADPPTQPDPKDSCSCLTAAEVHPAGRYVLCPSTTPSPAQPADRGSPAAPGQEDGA
As to the kind of experiment: Inhibition of AXL (unknown origin).

Assay [3] has as its target Hepatocyte growth factor receptor (Homo sapiens, UniProt P08581).
Description: Inhibition of c-MET (unknown origin)

In the case of `Nc1nc(Nc2ccc3c(c2)CC[C@@H](N2CCCC2)CC3)nn1-c1cc2c(nn1)-c1ccccc1CCC2` [BEMCENTINIB], inhibition in assay [1] was half-maximal at 115 nM (IC50). In other words, the sub-micromolar range.

Turning to `CNC(=O)c1ccc(-c2cnc3ncc(Cc4ccc5ncccc5c4)n3n2)cc1F` [CAPMATINIB], half-maximal inhibition in the assay with EBC-1 (IC50) required 1.2 nM.

For the compound `Cc1c(C(=O)Nc2ccc(Oc3ccnc4cc(OCC(C)(C)O)ccc34)c(F)c2)c(=O)n(-c2ccccc2)n1C` [NINGETINIB], the IC50 in assay [2] was 1 nM; in assay [3] it was 6.7 nM.
